# Test results reported in patent publication US8716558B2, “Method of altering glycosylation of proteins in response to nojirimycin glucuronide in a plant cell expressing glucuronidase” (Marker Gene Technologies, Inc., priority 1999, dated 2014).
# Columns and labels:
# [1] = system: LFY::luc transformed Arabidopsis thaliana ecotype Columbia; experiment: Tissue selective ablation of meristem floral initiator cells; assay type: in vivo; details: 5 mM spray in 0.01% triton X-100, 2 times per day, 7-20 days
# Description: To test for induction of sterility and prevention of cross-pollination of recombinant plants, Arabiposis thaliana ecotype Columbia are transformed with a plasmid construct containing an LEAFY promoter (LFY) driven firefly luciferase (luc) gene by standard leaf disk techniques (Horsch, et al., 1988). The 2.3 kb BamHI fragment spanning the LFY promoter (Blazquez, et al., 1997) is inserted in front of the luc gene in plasmid pGL3 (available from Promega Corp., Madison, Wis.) using the BglII site. Transgenic plants are generated using the vacuum-filtration method of Berthold, et al. (Berthold, et al., 1993). Regenerated kanamycin-resistant T1 plants carrying LFY::luc are grown up in a greenhouse to allow seed to set. T2 seed of strongly expressing T1 lines are grown in sterile culture on MS medium containing kanamycin at 20° C. for 6 to 10 days in 16 hours light: 8 hours dark cycles and afterward in 12 hour light: 12 hour dark cycles. Plants are treated by spray application to the upper leaves and apical shoot sections, with 5 mM D-luciferin-bromoxynil in 0.01% aqueous triton X-100, 2 times per day, beginning on day 4, for a period of 7-20 days.
# [2] = system: 50/50 co-culture of NIH/3T3 and CRE BAG 2 cells; experiment: Selective ablation, ONPG turnover by remaining cells; assay type: cell-based; details: 15 μg/ml
# Experimental: (§1) NIH/3T3, CRE BAG 2, or a 50/50 mixture of both cell lines (in co-culture) (Total cell density=6×10^4 cells each) were plated in […]. 12 tissue culture treated glass cover slips were added to each plate, and the cells were allowed to grow in an humidified CO2-incubator (37° C.) for 24 hours. Half the cover slips from each plate were then transferred to separate plates. Cells were treated with 15 μg/ml cycloheximide ? -D-galactopyranoside described in Example 1 (M0147) in media for 14 hours then given fresh media (DME with 10% FCS) for 10 hours. This treatment was repeated twice more, the cover slips were removed from both the M0147 treated and untreated 60 mm plates and placed in 12 well plates. To give an indication of the number of β-galactosidase expressing CREBAG2 cells remaining on the cover slips, the cover slips were incubated with the β-galactosidase substrate ONPG, whose turnover can be measured by the change in absorbance at 420 nm. The cells were rinsed with PBS, then 1 ml of 3.5 mM ONPG in HBSS was added to each well. After 4 hours incubation at 37° C., the solution was removed from each well and the absorbance was measured at 420 nm.
# [3] = system: CRE BAG 2 cells; experiment: as above; assay type: cell-based; details: 15 μg/ml, 14 hours, three treatments, ONPG turnover 4 hours
# Experimental: as §1
# [4] = system: NIH/3T3 cells; experiment: as above; assay type: cell-based; details: 15 μg/ml, 14 hours, three treatments, ONPG turnover 4 hours
# Experimental: as §1
# [5] = system: CRE BAG 2 cells (β-galactosidase expressing); experiment: Doubling time in DME:F12 with a defined sugar, MTT assay; assay type: cell-based, Mouse; details: CRE BAG 2, named sugar as only sugar
# Experimental: (§2) Mouse fibroblast cell line NIH/3T3 and its β-galactosidase expressing derivative CREBAG 2 available from ATCC, Manassas, Va., were grown in media containing either only glucose or only lactose to show the ability to select for β-galactosidase expressing cells by providing only lactose as a carbon source, which must be cleaved into glucose and galactose by β-galactosidase before it can be utilized by the cell.
# (§3) 1:1 Dulbecco's Modified Eagles medium (DME): Ham F12 medium was prepared according to standard formula (Freshney) and with the omission of D-glucose, which was replaced by an equimolar quantity of D-lactose. Cell lines were plated in 2, 12 well plates for each cell type, at a density of 5×10^3 cells per well, in DME containing 10% Calf Serum (CS), and incubated for 4 hours at 37° C. to allow settling and attachment to the plate. Media was then removed and cells were washed once with phosphate buffered saline solution (PBS). […]
# (§4) For the MTT assay, cells are incubated with the MTT reagent, which is turned over by live cells to a purple MTT formazan product. […] Absorbence of each sample is measured against a DMSO blank at 570 nm.
# [6] = system: NIH/3T3 cells; experiment: as above; assay type: cell-based, Mouse; details: NIH/3T3, named sugar as only sugar
# Experimental: as §2, §3, §4
# [7] = system: X. campestris CL355 (ampicillin resistant, plasmid pGC9114); experiment: Differential growth of amp-containing bacteria under PPT block; assay type: cell-based, Xanthomonas campestris; details: M9+0.2% glucose+PPT (20 μg/mL)+M0182 (63 μg/mL)
# [8] = system: X. campestris XN1; experiment: Differential growth of non-transformed bacteria under PPT block; assay type: cell-based, Xanthomonas campestris; details: M9+0.2% glucose+PPT (20 μg/mL)+M0182 (63 μg/mL)
compound,measurement,setting,value
"N#Cc1cc(Br)c(OCC2SC(c3nc4ccc(O)cc4s3)=N[C@H]2C(=O)O)c(Br)c1 (stereo partly drawn) [D-luciferin-bromoxynil, D-2-(6′-Hydroxybenzothiazol-2′-yl)-D2-5-(2,6-dibromo-4-cyanophenoxy)methylthiazoline-4-carboxylic acid]",floral initiation in apical shoot meristem,[1],no transition to floral initiation
"CC1CC(C)C(=O)[C@H]([C@H](CC2CC(=O)NC(=O)C2)OC2OC(CO)C(O)C(O)C2O)C1 (stereo partly drawn) [Example M0147, 3-[2-(3,5-dimethyl-2-oxocyclohexyl)-2-O-(β-D-galactopyranosyl)ethyl]glutarimide]",β-galactosidase activity (number of CREBAG2 cells) in co-culture,[2]; to nearly that of NIH/3T3 cells alone,decrease of β-galactosidase activity
same,Growth (abs @ 420 nm),"[2]; Coculture, 14 hours, three treatments, ONPG turnover 4 hours",.133
same,Growth (abs @ 420 nm),[3],.450
same,Growth (abs @ 420 nm),[4],.100
"OC[C@H]1O[C@@H](O[C@H]2[C@H](O)[C@@H](O)C(O)O[C@@H]2CO)[C@H](O)[C@@H](O)[C@H]1O (stereo partly drawn) [lactose, D-lactose]",Doubling Times (Days) of Cells Grown in DME:F12 with 10% dCS,[5],1.13 days
same,Doubling Times (Days) of Cells Grown in DME:F12 with 10% dCS,[6],0.87 days
Phenylacetyl-cephalosporanic acid-glutamate [Example M0182],"final growth, Abs. (600 nm)",[7],0.471
same,"final growth, Abs. (600 nm)",[8],0.101
